System: Vγ9Vδ2 T cells
Assay: γ9δ2 T cell proliferation/expansion after coculture of ZA-loaded iDCs with PBLs
Format: cell-based, human
Details: 7-day coculture of ZA-loaded iDCs with PBLs
Protocol: To check the functionality of the retained compound, ZA, the expansion of γ9δ2 T cells was evaluated after cocultivation of ZA-loaded iDCs with cryopreserved PBLs.
For evaluation of ex vivo frequency of γ9δ2 T cells freshly isolated PBMCs were stained with anti-CD3, anti-TCR-Vδ2 mABs and analysed via flow cytometry. Therefore, iDCs have been incubated as indicated for 24 h in standard medium (1×10^6 cells/mL) containing 5 μM ZA.
After loading with ZA, iDCs have been centrifuged and washed with PBS. The coculture of iDCs with PBLs was setup in a ratio of 20 (iDCs): γ9δ2 T cells ex vivo. The medium was supplemented with 10 U/mL IL-2 (Proleukin). After 7-day incubation cells were harvested, washed and stained with anti-CD3, anti-TCR-Vδ2 mABs to evaluate frequency of γ9δ2 T cells and their expansion via flow cytometry. For analysis the expansion rate was determined dividing whole cell amount of γ9δ2 T cells before or after 7-day-cultivation.

O=P(O)(O)C(O)(Cn1ccnc1)P(=O)(O)O [free ZA, zoledronic acid]
expansion rate of Vγ9δ2 T cells: about 15 fold

— patent US11337922B2, “Lipid particle formulations for delivery of RNA and water-soluble therapeutically effective compounds to a target cell” (BioNTech RNA Pharmaceuticals GmbH, priority 2015, dated 2022)
